pKi: −log10 of the molar value. Square brackets hold non-standard residues; d marks the D form. Peptide text beside a SMILES is read from it. Api(1-amidino) = N=C(N)N1CCC(N)(C(=O)O)CC1; d2Nal = N[C@H](Cc1ccc2ccccc2c1)C(=O)O; Api = NC1(C(=O)O)CCNCC1; PEG2 = NCCOCCOCCC(=O)O; azaGly = NNC(=O)O; Sar = CNCC(=O)O
target: human kisspeptin receptor (Homo sapiens (Human), UniProt Q969F8); experiment: Human KISS1R binding assay (membrane competition binding); settings: 90 min at room temperature; competition with 0.2 nM [125I]-metastin (45-54); Flp-In T-Rex 293 kisspeptin membranes; metal complexes nonradioactive Ga, In, Lu; read-out: hKiSSR Binding Ki (90 min)
Sequence (Q969F8 whole entry): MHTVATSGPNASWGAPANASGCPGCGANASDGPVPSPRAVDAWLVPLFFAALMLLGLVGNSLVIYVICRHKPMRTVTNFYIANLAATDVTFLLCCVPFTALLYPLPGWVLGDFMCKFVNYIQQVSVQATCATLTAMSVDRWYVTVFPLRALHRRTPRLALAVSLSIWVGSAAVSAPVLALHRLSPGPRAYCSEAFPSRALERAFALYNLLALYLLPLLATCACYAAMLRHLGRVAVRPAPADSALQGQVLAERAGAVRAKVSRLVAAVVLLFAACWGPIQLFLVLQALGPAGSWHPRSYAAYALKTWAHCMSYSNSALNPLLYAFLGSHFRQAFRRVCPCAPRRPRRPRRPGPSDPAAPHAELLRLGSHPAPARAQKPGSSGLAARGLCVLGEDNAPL
In short: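 Membranes from tetracycline-induced (48 h) Flp-In T-Rex 293 cells expressing receptor, 5–10 μg, incubated 90 min at room temperature with 0.2 nM [125I]-metastin (45-54) and competitor (typically 0–10,000 nM) in Tris/Mg/Ca/EGTA/0.1% BSA, pH 7.4. Filtration, washing, counting; Ki by non-linear regression.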

pKi, > 8.00:
CNCC(=O)N1CCC(NC(=O)[C@H](CC(C)C)NC(=O)NNC(=O)[C@H](Cc2ccccc2)NC(=O)[C@@H](NC(=O)[C@H](CC(N)=O)NC(=O)[C@@H](Cc2ccc3ccccc3c2)NC(=O)[C@H](N)Cc2ccc(O)cc2)[C@@H](C)O)(C(=O)N[C@@H](Cc2c[nH]c3ccccc23)C(N)=O)CC1 [Compound 408] (H-[dY][d2Nal]NTF[azaGly]L[Api](Sar)W-NH2), CC(C)C[C@H](NC(=O)NNC(=O)[C@H](Cc1ccccc1)NC(=O)[C@@H](NC(=O)[C@H](CC(N)=O)NC(=O)[C@@H](Cc1ccc2ccccc2c1)NC(=O)[C@H](N)Cc1ccc(O)cc1)[C@@H](C)O)C(=O)NC1(C(=O)N[C@@H](Cc2ccccc2)C(N)=O)CCN(C(=N)N)CC1 [Compound 409] (H-[dY][d2Nal]NTF[azaGly]L[Api(1-amidino)]F-NH2), CC(C)C[C@H](NC(=O)NNC(=O)[C@H](Cc1ccccc1)NC(=O)[C@@H](NC(=O)[C@H](CC(N)=O)NC(=O)[C@@H](Cc1ccc2ccccc2c1)NC(=O)[C@@H](Cc1ccc(O)cc1)NC(=O)CCOCCOCCN)[C@@H](C)O)C(=O)NC1(C(=O)N[C@@H](Cc2c[nH]c3ccccc23)C(N)=O)CCN(C(=N)N)CC1 [Compound 410] (H-[PEG2][dY][d2Nal]NTF[azaGly]L[Api(1-amidino)]W-NH2), CC(C)C[C@H](NC(=O)NNC(=O)[C@H](Cc1ccccc1)NC(=O)[C@@H](NC(=O)[C@H](CC(N)=O)NC(=O)[C@@H](Cc1ccc2ccccc2c1)NC(=O)[C@H](N)Cc1ccc(O)cc1)[C@@H](C)O)C(=O)NC1(C(=O)N[C@@H](Cc2c[nH]c3ccccc23)C(N)=O)CCN(C(=N)N)CC1 [Compound 411] (H-[dY][d2Nal]NTF[azaGly]L[Api(1-amidino)]W-NH2)

Source: patent US20250312499A1, “KISSPEPTIN RECEPTOR (KISS1R) TARGETED THERAPEUTICS AND USES THEREOF” (priority 2024, published 2025)
